42 compounds from ChEMBL document CHEMBL3297644, “Discovery of a 4-aryloxy-1H-pyrrolo[3,2-c]pyridine and a 1-aryloxyisoquinoline series of TRPA1 antagonists” (Bioorg Med Chem Lett, 2014) can be followed below.

Values after ≈ are worked out from the molar mass of the structure shown.

In data set [1] the target is Transient receptor potential cation channel subfamily A member 1 (Homo sapiens, UniProt O75762). Kind of data set: Antagonist activity at human TRPA1 expressed in HEK293-TREx cells assessed as intracellular level after 48 of 72 hrs by Fluo-4 NW staining-based fluorescence analysis. Type of data set: cell-based.
Data set [2] concerns the target Transient receptor potential cation channel subfamily A member 1 (Rattus norvegicus, UniProt Q6RI86). Kind of data set: Antagonist activity at rat TRPA1 expressed in HEK293-TREx cells assessed as intracellular level after 48 of 72 hrs by Fluo-4 NW staining-based fluorescence analysis. Type of data set: cell-based.
The nature of data set [3]: Thermodynamic solubility of the compound in buffer at pH 7.4 by HPLC/UV detection. Type of data set: physicochemical. The settings on record: read-out: Therm_solubility.
Data set [4] is described as follows: Intrinsic clearance in human liver microsomes at 1 uM in presence of NADPH. Type of data set: ADME. Conditions: read-out: CLH. In general terms: Liver microsomes are a subcellular fraction often used to study metabolism.
Data set [5] in a line: Apparent permeability across apical to basolateral side in human Caco2 cells at 10 uM at pH 7.4 by Transwell assay. Type of data set: ADME, cell-based. The settings on record: Caco-2, pH 7.4. Background: Caco-2 cells form a polarised layer with tight junctions and transporters.
Data set [6] addresses T1, Cytochrome P450 1A2 (Homo sapiens, UniProt P05177).
T1 sequence (P05177 whole entry): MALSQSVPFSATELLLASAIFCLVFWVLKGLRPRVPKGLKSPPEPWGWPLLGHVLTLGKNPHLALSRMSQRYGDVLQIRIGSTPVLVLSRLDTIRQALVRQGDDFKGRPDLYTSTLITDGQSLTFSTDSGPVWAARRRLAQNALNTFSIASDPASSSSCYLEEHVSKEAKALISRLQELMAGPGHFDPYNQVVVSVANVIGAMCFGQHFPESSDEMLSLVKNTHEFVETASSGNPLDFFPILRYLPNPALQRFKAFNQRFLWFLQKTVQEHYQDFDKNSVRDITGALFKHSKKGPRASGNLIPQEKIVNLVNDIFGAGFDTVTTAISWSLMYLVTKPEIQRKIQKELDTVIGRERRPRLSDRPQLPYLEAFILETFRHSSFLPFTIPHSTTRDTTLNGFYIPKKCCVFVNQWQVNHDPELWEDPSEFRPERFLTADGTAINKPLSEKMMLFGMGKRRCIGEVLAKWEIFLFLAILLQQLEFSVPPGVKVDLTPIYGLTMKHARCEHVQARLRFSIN
Kind of data set: Inhibition of CYP1A2 in human liver microsomes by LC-MS/MS/competitive screening assay. Type of data set: ADME.

A further data set concerns the target Cytochrome P450 2C9 (Homo sapiens, UniProt P11712). Kind of data set: Inhibition of CYP2C9 in human liver microsomes by LC-MS/MS/competitive screening assay. The class given is ADME.
Another data set has as its target Cytochrome P450 2C19 (Homo sapiens, UniProt P33261). Kind of data set: Inhibition of CYP2C19 in human liver microsomes by LC-MS/MS/competitive screening assay. Type of data set: ADME.
The next data set concerns the target Cytochrome P450 2D6 (Homo sapiens, UniProt P10635). Kind of data set: Inhibition of CYP2D6 in human liver microsomes by LC-MS/MS/competitive screening assay. Type of data set: ADME.
Another data set has as its target Cytochrome P450 3A4 (Homo sapiens, UniProt P08684). Kind of data set: Inhibition of CYP3A4 in human liver microsomes by LC-MS/MS/competitive screening assay. Type of data set: ADME.
The target of data set [7] is T1, Cytochrome P450 1A2. Kind of data set: Time dependent inhibition of CYP1A2 in human liver microsomes assessed as shift at 10 uM. The class given is ADME. The settings on record: pooled result: one value given for 4 cell lines, strains, targets or settings.
The target of data set [8] is Transient receptor potential cation channel subfamily V member 1 (Homo sapiens, UniProt Q8NER1). Kind of data set: Inhibition of human TRPV1.
Data set [9] is described as follows: Chemical stability in buffer solution assessed as compound remaining at pH 1 at 70 degC after 24 hrs by HPLC/UV detection. The class given is physicochemical. Conditions: read-out: Stability.
The nature of data set [10]: Chemical stability in buffer solution assessed as compound remaining at pH 7 at 70 degC after 24 hrs by HPLC/UV detection. The class given is physicochemical. The settings on record: read-out: Stability.
The nature of data set [11]: Chemical stability in buffer solution assessed as compound remaining at pH 14 at 70 degC after 24 hrs by HPLC/UV detection. Type of data set: physicochemical. Conditions: read-out: Stability.

Cytochrome P450 2D6, sequence (P10635 whole entry): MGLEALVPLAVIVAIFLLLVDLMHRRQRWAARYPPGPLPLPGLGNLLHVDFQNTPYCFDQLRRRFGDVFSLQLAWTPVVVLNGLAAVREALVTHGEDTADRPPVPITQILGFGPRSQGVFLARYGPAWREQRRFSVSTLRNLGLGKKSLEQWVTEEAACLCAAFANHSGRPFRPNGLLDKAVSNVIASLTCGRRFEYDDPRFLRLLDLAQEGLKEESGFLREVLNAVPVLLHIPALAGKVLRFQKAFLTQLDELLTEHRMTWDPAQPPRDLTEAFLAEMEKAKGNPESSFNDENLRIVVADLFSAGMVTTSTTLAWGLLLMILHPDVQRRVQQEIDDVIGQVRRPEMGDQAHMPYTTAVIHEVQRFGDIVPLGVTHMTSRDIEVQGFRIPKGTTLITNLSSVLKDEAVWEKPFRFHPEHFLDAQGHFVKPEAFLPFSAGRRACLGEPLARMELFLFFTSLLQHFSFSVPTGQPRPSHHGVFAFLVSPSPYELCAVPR
Cytochrome P450 2C9, sequence (P11712 whole entry): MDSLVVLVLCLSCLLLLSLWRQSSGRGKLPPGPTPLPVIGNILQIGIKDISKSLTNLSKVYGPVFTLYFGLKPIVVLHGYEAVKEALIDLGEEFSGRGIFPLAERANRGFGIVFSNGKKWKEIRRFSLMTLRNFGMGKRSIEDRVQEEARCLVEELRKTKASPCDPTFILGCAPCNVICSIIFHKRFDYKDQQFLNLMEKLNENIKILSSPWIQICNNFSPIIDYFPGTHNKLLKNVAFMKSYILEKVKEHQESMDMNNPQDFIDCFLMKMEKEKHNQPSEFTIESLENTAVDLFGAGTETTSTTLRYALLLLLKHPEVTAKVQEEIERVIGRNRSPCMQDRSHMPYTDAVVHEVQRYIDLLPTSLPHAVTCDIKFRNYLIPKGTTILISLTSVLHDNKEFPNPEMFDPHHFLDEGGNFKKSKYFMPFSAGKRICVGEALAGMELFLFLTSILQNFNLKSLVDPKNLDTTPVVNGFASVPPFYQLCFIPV
Transient receptor potential cation channel subfamily A member 1 (Homo sapiens, UniProt O75762), sequence (O75762 whole entry): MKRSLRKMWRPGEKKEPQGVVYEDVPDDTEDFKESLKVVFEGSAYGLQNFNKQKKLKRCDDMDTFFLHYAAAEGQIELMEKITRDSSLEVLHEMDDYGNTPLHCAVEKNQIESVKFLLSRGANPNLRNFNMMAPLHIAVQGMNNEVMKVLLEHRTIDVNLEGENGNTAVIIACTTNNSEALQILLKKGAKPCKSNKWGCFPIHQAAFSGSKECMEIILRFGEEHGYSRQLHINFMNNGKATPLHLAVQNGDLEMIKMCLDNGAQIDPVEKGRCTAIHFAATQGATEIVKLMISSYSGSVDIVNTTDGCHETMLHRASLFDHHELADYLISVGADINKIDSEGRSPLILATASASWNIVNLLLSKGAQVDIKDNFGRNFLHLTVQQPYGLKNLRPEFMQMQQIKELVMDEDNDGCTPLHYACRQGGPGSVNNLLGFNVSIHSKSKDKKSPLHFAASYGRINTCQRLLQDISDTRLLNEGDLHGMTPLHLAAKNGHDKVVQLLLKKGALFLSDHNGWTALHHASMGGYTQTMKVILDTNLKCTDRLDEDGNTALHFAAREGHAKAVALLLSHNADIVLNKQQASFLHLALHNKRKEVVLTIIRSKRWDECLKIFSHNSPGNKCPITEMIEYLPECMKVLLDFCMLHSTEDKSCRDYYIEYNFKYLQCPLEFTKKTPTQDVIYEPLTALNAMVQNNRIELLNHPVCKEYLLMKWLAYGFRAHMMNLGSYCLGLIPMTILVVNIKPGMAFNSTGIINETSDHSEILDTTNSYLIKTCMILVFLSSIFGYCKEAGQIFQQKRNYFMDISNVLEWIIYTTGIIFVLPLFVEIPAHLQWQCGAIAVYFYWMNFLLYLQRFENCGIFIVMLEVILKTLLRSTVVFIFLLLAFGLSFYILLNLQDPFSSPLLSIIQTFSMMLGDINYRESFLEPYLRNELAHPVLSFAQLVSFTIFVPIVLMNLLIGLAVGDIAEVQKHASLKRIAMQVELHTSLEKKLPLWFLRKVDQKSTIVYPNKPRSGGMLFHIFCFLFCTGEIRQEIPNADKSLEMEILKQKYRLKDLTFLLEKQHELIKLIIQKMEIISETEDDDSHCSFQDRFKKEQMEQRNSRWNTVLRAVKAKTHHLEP
Transient receptor potential cation channel subfamily A member 1 (Rattus norvegicus, UniProt Q6RI86), sequence (Q6RI86 whole entry): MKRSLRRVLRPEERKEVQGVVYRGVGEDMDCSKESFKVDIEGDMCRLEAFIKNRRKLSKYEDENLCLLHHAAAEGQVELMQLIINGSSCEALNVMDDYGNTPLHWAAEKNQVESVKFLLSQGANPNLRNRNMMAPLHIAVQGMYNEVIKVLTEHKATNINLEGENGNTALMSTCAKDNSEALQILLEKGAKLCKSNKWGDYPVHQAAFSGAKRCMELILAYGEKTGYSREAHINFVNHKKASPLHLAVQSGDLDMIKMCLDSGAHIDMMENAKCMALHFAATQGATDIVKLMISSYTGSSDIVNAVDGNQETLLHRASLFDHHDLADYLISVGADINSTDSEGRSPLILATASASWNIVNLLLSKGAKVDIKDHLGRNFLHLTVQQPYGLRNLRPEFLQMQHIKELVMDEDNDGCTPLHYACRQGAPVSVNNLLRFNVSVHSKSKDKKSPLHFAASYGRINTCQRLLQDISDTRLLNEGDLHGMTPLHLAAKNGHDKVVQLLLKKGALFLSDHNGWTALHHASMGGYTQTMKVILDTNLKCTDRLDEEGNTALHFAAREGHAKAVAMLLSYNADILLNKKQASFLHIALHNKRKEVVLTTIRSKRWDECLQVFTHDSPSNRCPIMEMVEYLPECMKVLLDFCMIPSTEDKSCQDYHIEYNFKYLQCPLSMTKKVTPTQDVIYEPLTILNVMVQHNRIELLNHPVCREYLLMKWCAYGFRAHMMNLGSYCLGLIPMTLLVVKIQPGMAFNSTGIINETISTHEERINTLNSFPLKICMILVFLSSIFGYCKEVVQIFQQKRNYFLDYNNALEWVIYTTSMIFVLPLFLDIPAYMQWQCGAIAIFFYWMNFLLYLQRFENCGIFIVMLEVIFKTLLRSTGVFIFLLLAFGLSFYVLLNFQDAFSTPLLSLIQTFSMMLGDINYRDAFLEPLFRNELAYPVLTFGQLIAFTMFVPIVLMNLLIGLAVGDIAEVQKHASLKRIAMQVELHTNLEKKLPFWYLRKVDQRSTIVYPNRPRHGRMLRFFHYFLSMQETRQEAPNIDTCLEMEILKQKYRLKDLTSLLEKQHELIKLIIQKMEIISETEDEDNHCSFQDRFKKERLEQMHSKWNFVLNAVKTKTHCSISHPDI
Cytochrome P450 2C19, sequence (P33261 whole entry): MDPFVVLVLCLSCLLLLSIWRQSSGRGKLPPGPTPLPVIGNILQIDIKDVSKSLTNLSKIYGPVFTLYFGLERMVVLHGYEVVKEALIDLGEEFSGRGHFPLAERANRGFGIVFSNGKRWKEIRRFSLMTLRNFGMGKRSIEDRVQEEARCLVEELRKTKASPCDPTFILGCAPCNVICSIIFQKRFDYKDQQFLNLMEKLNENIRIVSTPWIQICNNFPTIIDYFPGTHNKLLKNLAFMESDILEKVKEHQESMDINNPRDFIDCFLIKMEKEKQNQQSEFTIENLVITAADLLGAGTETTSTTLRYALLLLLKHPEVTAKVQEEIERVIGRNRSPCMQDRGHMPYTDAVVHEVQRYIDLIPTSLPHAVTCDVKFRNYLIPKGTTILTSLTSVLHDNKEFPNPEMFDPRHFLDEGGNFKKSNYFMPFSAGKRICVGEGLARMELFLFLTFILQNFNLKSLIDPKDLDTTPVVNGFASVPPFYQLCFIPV
Cytochrome P450 3A4, sequence (P08684 whole entry): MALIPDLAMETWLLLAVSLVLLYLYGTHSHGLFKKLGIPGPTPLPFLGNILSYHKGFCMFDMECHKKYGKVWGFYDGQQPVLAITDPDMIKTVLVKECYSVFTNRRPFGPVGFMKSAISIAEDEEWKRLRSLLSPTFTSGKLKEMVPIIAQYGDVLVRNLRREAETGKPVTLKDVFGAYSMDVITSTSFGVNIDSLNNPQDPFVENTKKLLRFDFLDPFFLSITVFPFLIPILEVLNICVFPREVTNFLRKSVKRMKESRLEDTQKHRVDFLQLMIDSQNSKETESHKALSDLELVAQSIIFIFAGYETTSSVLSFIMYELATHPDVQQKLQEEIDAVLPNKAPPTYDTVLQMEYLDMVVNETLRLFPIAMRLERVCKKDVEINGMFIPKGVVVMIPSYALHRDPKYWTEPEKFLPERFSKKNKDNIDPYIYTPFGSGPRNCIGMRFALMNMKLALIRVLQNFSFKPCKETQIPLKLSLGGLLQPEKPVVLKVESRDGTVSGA
Transient receptor potential cation channel subfamily V member 1, sequence (Q8NER1 whole entry): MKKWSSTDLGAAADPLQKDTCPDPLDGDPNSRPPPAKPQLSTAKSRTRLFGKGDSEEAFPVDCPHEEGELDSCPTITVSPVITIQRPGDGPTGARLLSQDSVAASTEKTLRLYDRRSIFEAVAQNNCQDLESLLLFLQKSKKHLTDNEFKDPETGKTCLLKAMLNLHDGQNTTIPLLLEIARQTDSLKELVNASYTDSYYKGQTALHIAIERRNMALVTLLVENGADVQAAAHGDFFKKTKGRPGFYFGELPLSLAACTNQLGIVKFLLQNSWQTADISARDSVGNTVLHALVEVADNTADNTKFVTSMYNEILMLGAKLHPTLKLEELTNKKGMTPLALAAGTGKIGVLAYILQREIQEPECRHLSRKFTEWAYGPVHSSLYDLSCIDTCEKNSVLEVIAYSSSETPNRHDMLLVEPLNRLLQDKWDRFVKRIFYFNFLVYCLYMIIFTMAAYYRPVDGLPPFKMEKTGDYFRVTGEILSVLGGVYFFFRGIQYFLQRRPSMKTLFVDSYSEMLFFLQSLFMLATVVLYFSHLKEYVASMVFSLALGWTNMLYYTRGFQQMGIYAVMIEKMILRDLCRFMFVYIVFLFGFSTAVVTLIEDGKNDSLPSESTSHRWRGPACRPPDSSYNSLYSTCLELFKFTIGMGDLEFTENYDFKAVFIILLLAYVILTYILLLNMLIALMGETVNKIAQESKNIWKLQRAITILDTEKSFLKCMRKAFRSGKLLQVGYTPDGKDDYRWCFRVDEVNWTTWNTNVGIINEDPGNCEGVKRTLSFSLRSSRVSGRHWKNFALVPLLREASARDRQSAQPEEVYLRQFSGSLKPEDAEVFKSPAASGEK

Consider `Fc1ccc(Oc2ccnc3[nH]ccc23)c(F)c1`, for which the IC50 in data set [1] is over 32000 nM.

For `Fc1ccc(Oc2nccc3occc23)c(F)c1`, the IC50 in [1] turned out to be 2200 nM.

Turning to `Fc1ccc(Oc2nccc3[nH]ccc23)cc1`, the half-inhibitory concentration (IC50) in data set [1] is 310 nM; in data set [2], 1200 nM; on Cytochrome P450 1A2 [6] it was over 20000 nM; at Cytochrome P450 2C9, over 20000 nM; at Cytochrome P450 2C19, over 20000 nM; at Cytochrome P450 2D6 it was over 20000 nM. The compound also had an IC50 at Cytochrome P450 3A4 of over 20000 nM. For the same compound, the solubility thermodynamic in data set [3] turned out to be 24 µM (≈ 5.48 µg/mL). Moreover, the microsomal CLint at 1 µM in data set [4] was 74 µL/min/mg. The Papp A→B at 10 µM in data set [5] is 12 ×10⁻⁶ cm/s. Moreover, the TDI at Cytochrome P450 1A2 [7] worked out at 31%.

Turning to `COc1cc2ncnc(Oc3ccc(F)cc3F)c2cc1OC`, the IC50 in data set [1] is 1200 nM.

Consider `COc1ccc2c(Oc3ccc(F)cc3F)ncnc2c1`, for which the 50% inhibitory concentration (IC50) in data set [1] stood at 3000 nM.

As for `COc1ccc2ncnc(Oc3ccc(F)cc3F)c2c1`, the half-inhibitory concentration (IC50) in data set [1] was over 32000 nM.

`Fc1ccc(Oc2ncnc3ccccc23)c(F)c1`: in data set [1], the IC50 is over 32000 nM.

With `COc1cc2ccnc(Oc3ccc(F)cc3F)c2cc1OC`, in [1], the IC50 is 630 nM.

As to `COc1ccc2c(Oc3ccc(F)cc3F)nccc2c1`, the half-maximal inhibitory concentration (IC50) in data set [1] came out at 1300 nM.

Take `Fc1ccc(Oc2nccc3ccccc23)c(F)c1`: the IC50 in data set [1] amounted to 3100 nM.

For `COc1cc2ccnc(Oc3ccc(F)cc3)c2cc1OC`, the IC50 came out at 330 nM in [1]; 1800 nM in data set [2]; 1900 nM at Cytochrome P450 1A2 [6]; 1900 nM at Cytochrome P450 2C9; 1900 nM at Cytochrome P450 2C19; 1900 nM on Cytochrome P450 2D6. For the same compound, the IC50 on Cytochrome P450 3A4 was determined as 1900 nM. For the same compound, the solubility thermodynamic in data set [3] was found to be 8 µM (≈ 2.39 µg/mL). The microsomal CLint at 1 µM in [4] is 110 µL/min/mg. Also, the Papp A→B at 10 µM in [5] came to 6 ×10⁻⁶ cm/s.

For the compound `Fc1cc(F)c(Oc2ncnc3[nH]ccc23)c(F)c1`, the IC50 in data set [1] is over 32000 nM.

Regarding `Fc1ccc(Oc2ncnc3[nH]ccc23)c(F)c1`, the IC50 in data set [1] came out at 710 nM.

On to `Fc1ccc(Oc2ncnc3[nH]ccc23)cc1`, for which the IC50 in data set [1] was 410 nM; in [2], 3000 nM; in data set [8] it was over 10000 nM; on Cytochrome P450 1A2 [6] it was over 20000 nM; on Cytochrome P450 2C9, over 20000 nM; at Cytochrome P450 2C19 it was over 20000 nM. For the same compound, the IC50 at Cytochrome P450 2D6 and on Cytochrome P450 3A4 was over 20000 nM in each case. For the same compound, the solubility thermodynamic in data set [3] was determined as 33 µM (≈ 7.56 µg/mL). Also, the remaining at 24 h stood at 10% in data set [9], 100% in [10] and 100% in data set [11]. Further, the microsomal CLint at 1 µM in data set [4] is 24 µL/min/mg. Moreover, in [5], the apparent permeability from apical to basolateral (Papp A→B) at 10 µM turned out to be 18 ×10⁻⁶ cm/s. In addition, on Cytochrome P450 1A2 [7], the TDI stood at 44%.

For the compound `c1ccc(Oc2ncnc3[nH]ccc23)cc1`, the 50% inhibitory concentration (IC50) in data set [1] worked out at 3200 nM.

On to `Cc1ccc(Oc2ncnc3[nH]ccc23)cc1`, for which the 50% inhibitory concentration (IC50) in [1] is over 32000 nM.

On to `Cc1ccccc1Oc1ncnc2[nH]ccc12`, for which the IC50 in data set [1] was over 32000 nM.

As for `Cc1ccc(Oc2ncnc3[nH]ccc23)c(C)c1`, the IC50 in data set [1] was over 32000 nM.

For `Clc1ccc(Oc2ncnc3[nH]ccc23)cc1`, the half-inhibitory concentration (IC50) in [1] is over 32000 nM.

Take `N#Cc1ccc(Oc2ncnc3[nH]ccc23)cc1`: the IC50 in data set [1] was over 32000 nM.

With `O=[N+]([O-])c1ccc(Oc2ncnc3[nH]ccc23)cc1`, the half-maximal inhibitory concentration (IC50) in [1] was over 32000 nM.

Turning to `COc1ccc(Oc2ncnc3[nH]ccc23)cc1`, in data set [1], the IC50 was over 32000 nM.

Take `Fc1cccc(Oc2ncnc3[nH]ccc23)c1F`: the IC50 in data set [1] amounted to 2700 nM.

On to `Fc1ccc(Oc2ncnc3[nH]ccc23)cc1F`, for which the IC50 in data set [1] came out at 3000 nM.

`Fc1ccccc1Oc1ncnc2[nH]ccc12`: the concentration for half-maximal inhibition (IC50) in data set [1] is over 32000 nM.

`Fc1cccc(Oc2ncnc3[nH]ccc23)c1`: the IC50 in data set [1] was over 32000 nM.

`Fc1ccc(Nc2ncnc3[nH]ccc23)cc1`: in [1], the IC50 is over 32000 nM.

As to `Fc1ccc(Cc2ncnc3[nH]ccc23)cc1`, the IC50 in data set [1] is over 32000 nM.

As for `Cc1cc2c(Oc3ccc(F)cc3F)ncnc2[nH]1`, in data set [1], the IC50 came to 1200 nM.

Turning to `Cc1[nH]c2ncnc(Oc3ccc(F)cc3F)c2c1C`, the concentration for half-maximal inhibition (IC50) in data set [1] came out at 2000 nM.

Regarding `Cc1c[nH]c2ncnc(Oc3ccc(F)cc3F)c12`, in data set [1], the IC50 was found to be 650 nM.

In the case of `CCc1c[nH]c2ncnc(Oc3ccc(F)cc3F)c12`, the 50% inhibitory concentration (IC50) in data set [1] came out at 1600 nM.

Take `Fc1ccc(Oc2ncnc3[nH]cc(Cl)c23)c(F)c1`: the IC50 in data set [1] came out at 630 nM.

As to `Fc1ccc(Oc2ncnc3[nH]cc(I)c23)c(F)c1`, in data set [1], the IC50 worked out at 2500 nM.

Turning to `Fc1ccc(Oc2ccncn2)c(F)c1`, the IC50 in data set [1] was over 32000 nM.

With `Cn1ccc2c(Oc3ccc(F)cc3F)ncnc21`, the 50% inhibitory concentration (IC50) in data set [1] is over 32000 nM.

Regarding `Fc1ccc(Oc2ncnc3cc[nH]c23)c(F)c1`, the half-maximal inhibitory concentration (IC50) in [1] was over 32000 nM.

Turning to `Fc1ccc(Oc2ncnc3ccoc23)c(F)c1`, the IC50 in data set [1] is over 32000 nM.

As to `Fc1ccc(Oc2ncnc3occc23)c(F)c1`, the IC50 in [1] was over 32000 nM.

With `Fc1ccc(Oc2cccc3[nH]ccc23)c(F)c1`, the IC50 in data set [1] is 1100 nM.

With `Fc1ccc(Oc2nccc3[nH]ccc23)c(F)c1`, the half-inhibitory concentration (IC50) was 320 nM in data set [1]; 1700 nM in data set [2]; over 10000 nM in data set [8]; over 20000 nM on Cytochrome P450 1A2 [6]; over 20000 nM on Cytochrome P450 2C9; over 20000 nM at Cytochrome P450 2C19. In addition, the half-inhibitory concentration (IC50) at Cytochrome P450 2D6 and on Cytochrome P450 3A4 was over 20000 nM in each case. The solubility thermodynamic in [3] stood at 77 µM (≈ 19 µg/mL). Besides, the remaining at 24 h in [9], in data set [10] and in data set [11] was 100% throughout. In addition, the microsomal CLint at 1 µM in data set [4] amounted to 45 µL/min/mg. Further, the Papp A→B at 10 µM in [5] was determined as 33 ×10⁻⁶ cm/s. Further, the TDI on Cytochrome P450 1A2 [7] is 42%.

Regarding `Fc1ccc(Oc2nccc3ccoc23)c(F)c1`, in data set [1], the half-inhibitory concentration (IC50) worked out at 1100 nM.

One may read the IC50 as the concentration needed to halve the response being measured. By Papp A→B is commonly meant the apparent permeability from the apical to the basolateral side of a cell layer.
